# Results from US20260207717A1, “METHODS FOR TREATING INFANTILE-ONSET POMPE DISEASE IN PEDIATRIC PATIENTS” (Amicus Therapeutics, Inc., priority 2022, published 2026).
# Entries after “also recorded” stand apart in the source; their conditions may differ. Where two headings read alike, the source gives them in different places. Marks after values point to notes of the source that are not given here.
# Legend:
# CIMPR = CIMPR (Homo sapiens, UniProt P11717); experiment: CIMPR plate binding assay
# Description: In addition to having a greater percentage of rhGAA that can bind to the CIMPR, it is important to understand the quality of that interaction. LUMIZYME® and ATB200 receptor binding was determined using a CIMPR plate binding assay. Briefly, CIMPR-coated plates were used to capture GAA. Varying concentrations of rhGAA were applied to the immobilized receptor and unbound rhGAA was washed off. The amount of remaining rhGAA was determined by GAA activity. […] For LUMIZYME®, there is on average only 10% of molecules having a bis-phosphorylated N-glycan. In contrast, on average every rhGAA molecule in ATB200 has at least one bis-phosphorylated N-glycan.
# N-glycan analysis via MALDI-TOF mass spectrometry confirmed that on average each ATB200 molecule contains at least one natural bis-M6P N-glycan structure.
# [1] = tested on: normal and Pompe fibroblast cell lines; experiment: Cellular uptake of rhGAA (internalized GAA by 4MU-α-Glucoside hydrolysis); format: cell-based
# Description: The relative cellular uptake of ATB200 and LUMIZYME® rhGAA were compared using normal and Pompe fibroblast cell lines. Comparisons involved 5-100 nM of ATB200 according to the disclosure with 10-500 nM conventional rhGAA product LUMIZYME®. After 16-hr incubation, external rhGAA was inactivated with TRIS base and cells were washed 3-times with PBS prior to harvest. Internalized GAA measured by 4MU-α-Glucoside hydrolysis and was graphed relative to total cellular protein and the results appear in FIGS. 11A-11C.
# ATB200 was also shown to be efficiently internalized into cells. […] ATB200 saturates cellular receptors at about 20 nM, while about 250 nM of LUMIZYME® is needed to saturate cellular receptors.
# [2] = Thermostability assay using SYPRO Orange; format: physicochemical
# Description: The stability of ATB200 in acidic or neutral pH buffers was evaluated in a thermostability assay using SYPRO Orange, as the fluorescence of the dye increases when proteins denature. […] As summarized in Table 10, the addition of miglustat increased the melting temperature (Tm) of ATB200 by nearly 10° C.
# [3] = tested on: single fibers isolated from the white gastrocnemius of Gaa KO mice; experiment: Single fiber analysis (LAMP1/LC3 co-immunofluorescence); format: in vivo
# Description: FIG. 17 depicts co-immunofluorescent staining of LAMP1 (green) (see for example, “B”) and LC3 (red) (see, for example, “A”) in single fibers isolated from the white gastrocnemius of Gaa KO mice treated with a vehicle, alglucosidase alfa, or ATB200. “C” depicts clearance of autophagic debris and absence of enlarged lysosome. A minimum of 30 fibers were examined from each animal.
# As a result, a significant portion of muscle fibers analyzed (36-60%) from ATB200-treated mice appeared normal or near-normal.
# Juvenile toxicology = format: in vivo
# Description: (§1) The cipaglucosidase alfa dose of 30 mg/kg being evaluated in this protocol was determined from population PK modeling and simulation analyses that included pooled data from 96 adults and 11 pediatric subjects dosed at 20, 25, and 30 mg/kg, including 3 pediatric IOPD patients from the Expanded Access Program (EAP) (ages 1 to 3 years) at the 30 mg/kg dose level. The 30 mg/kg dose level in combination with additional effect from miglustat provided exposures that are well within the safety margin and multiples of exposure established by the juvenile toxicology no-observed-adverse effect-level (NOAEL) of 150 mg/kg.
# pediatric IOPD patients = experiment: Tolerability and accumulation in 3 pediatric IOPD patients of the EAP; format: in vivo, human; conditions: 30 mg/kg cipaglucosidase alfa in combination with miglustat, 3 pediatric IOPD patients in the EAP
# Description: as §1
# This frequency of dosing is based on the systemic clearance of the cipaglucosidase alfa and miglustat, and the acuity/severity of disease in IOPD, as well as observations in 3 IOPD patients enrolled in the EAP (ERT-experienced patients in clinical decline).
# A weekly frequency of 30 mg/kg cipaglucosidase alfa and miglustat administration will be evaluated in this study. A weekly 30 mg/kg cipaglucosidase alfa and miglustat dose has been administered in pediatric subjects with IOPD from the EAP. […] The rationale for weekly dosing in both cohorts is based on evidence supporting improved survival for IOPD patients receiving weekly dosing of standard of care ERT compared to every other week dosing (Ditters, Huidekper et al, 2021). […]
# clinical = conditions: human, in vivo
# Description: At 10Y7M of age, the blood of the patient was collected to gather pharmacokinetic (PK) data for their treatment that included weekly administration of 20 mg/kg ATB200 and 130 mg AT2221.
# Blood sampling of the patient was conducted to gather pharmacokinetic (PK) data for their treatment that included administration of 25 mg/kg ATB200 and 195 mg AT2221 biweekly.
# At 12Y5M of age, the patient has been receiving ATB200 (20 mg/kg) and AT2221 (195 mg) biweekly for 1 year. […] At this time, the PK levels of both ATB200 and AT2221 were taken from the patient.
# pediatric IOPD patient = conditions: for LVEF / LVMI: 2 D
# Chain of CIMPR (P11717 41-2491, species assumed): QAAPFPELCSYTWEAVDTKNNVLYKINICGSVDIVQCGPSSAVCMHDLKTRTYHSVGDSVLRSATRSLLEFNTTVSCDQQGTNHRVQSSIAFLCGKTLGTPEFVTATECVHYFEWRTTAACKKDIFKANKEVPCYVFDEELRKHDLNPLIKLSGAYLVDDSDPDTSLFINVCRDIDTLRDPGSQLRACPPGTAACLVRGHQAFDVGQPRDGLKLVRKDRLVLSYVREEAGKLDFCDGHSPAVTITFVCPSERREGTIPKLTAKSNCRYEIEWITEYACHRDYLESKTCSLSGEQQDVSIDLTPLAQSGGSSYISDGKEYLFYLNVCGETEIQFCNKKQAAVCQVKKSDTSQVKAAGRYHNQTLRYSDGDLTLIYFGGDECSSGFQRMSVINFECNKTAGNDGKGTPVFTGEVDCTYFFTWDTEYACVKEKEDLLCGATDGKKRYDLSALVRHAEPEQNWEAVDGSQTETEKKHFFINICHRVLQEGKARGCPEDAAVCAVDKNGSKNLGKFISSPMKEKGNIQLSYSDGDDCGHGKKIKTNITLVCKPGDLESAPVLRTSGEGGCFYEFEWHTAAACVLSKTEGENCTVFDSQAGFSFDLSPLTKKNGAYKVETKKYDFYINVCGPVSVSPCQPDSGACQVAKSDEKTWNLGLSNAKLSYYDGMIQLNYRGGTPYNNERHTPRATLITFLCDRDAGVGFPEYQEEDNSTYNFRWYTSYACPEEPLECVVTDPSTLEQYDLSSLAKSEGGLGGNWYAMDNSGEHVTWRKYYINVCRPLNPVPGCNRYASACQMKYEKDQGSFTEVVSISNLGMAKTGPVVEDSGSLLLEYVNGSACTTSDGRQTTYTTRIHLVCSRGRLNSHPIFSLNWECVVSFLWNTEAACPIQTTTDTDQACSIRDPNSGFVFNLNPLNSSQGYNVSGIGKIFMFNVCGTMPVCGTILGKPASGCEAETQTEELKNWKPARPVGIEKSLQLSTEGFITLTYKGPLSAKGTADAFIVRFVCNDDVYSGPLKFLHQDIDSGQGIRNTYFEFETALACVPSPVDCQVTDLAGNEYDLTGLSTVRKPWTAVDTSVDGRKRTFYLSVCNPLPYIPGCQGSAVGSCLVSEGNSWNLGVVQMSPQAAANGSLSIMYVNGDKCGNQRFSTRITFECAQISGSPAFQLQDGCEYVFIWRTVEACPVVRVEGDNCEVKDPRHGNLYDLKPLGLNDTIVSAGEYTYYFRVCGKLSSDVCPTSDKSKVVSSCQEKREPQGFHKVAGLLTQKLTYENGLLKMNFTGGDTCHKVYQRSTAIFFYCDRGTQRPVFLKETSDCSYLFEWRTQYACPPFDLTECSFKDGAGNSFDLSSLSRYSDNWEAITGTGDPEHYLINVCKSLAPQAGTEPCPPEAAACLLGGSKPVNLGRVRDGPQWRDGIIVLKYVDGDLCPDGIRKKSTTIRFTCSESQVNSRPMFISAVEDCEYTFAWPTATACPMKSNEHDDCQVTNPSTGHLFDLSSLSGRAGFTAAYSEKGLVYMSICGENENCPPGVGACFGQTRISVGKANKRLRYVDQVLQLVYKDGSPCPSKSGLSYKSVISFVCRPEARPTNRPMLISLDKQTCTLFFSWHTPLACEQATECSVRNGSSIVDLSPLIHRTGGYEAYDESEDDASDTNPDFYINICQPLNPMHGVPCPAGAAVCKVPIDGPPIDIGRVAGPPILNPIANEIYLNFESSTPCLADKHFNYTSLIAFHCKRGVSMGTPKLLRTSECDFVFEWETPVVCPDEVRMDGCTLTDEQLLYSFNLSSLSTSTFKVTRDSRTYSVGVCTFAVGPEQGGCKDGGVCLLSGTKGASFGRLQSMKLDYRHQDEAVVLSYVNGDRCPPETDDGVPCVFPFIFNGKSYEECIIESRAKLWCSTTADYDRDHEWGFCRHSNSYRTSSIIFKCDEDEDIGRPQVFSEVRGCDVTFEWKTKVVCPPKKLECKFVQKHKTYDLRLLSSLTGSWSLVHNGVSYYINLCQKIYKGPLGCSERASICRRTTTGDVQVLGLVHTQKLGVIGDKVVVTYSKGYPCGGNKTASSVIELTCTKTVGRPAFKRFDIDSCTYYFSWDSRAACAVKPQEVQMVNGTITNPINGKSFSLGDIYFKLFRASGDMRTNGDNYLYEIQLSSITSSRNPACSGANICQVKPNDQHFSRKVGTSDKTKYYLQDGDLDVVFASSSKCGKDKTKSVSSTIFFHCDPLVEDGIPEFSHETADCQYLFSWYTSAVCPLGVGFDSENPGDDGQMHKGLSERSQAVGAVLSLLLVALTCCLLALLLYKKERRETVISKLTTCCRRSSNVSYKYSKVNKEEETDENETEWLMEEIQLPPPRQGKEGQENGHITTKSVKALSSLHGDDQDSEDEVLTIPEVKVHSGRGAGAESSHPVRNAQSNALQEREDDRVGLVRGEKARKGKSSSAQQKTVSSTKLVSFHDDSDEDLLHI
substance,measurement,setting,value
"ATB200: recombinant human acid α-glucosidase with a high content of N-glycans bearing mono-M6P and bis-M6P, produced from a GA-ATB200 cell line",Kd,CIMPR; M6P receptor plate binding assays,2 to 4 nM
same,binding to CIMPR,CIMPR; compared with LUMIZYME (FIG. 10A),significantly better
same,concentration that saturates cellular receptors,[1]; 16-hr incubation,about 20 nM
same,internalization into normal and Pompe fibroblast cells,[1]; compared with LUMIZYME,internalized to a greater degree
same,uptake efficiency constant (Kuptake),"[1]; extrapolated, FIG. 11C",2-3 nm
same,Tm,[2]; pH 5.2,67.3 °C
same,Tm,[2]; pH 7.4,56.2 °C
same,increase of melting temperature (Tm) by addition of miglustat,[2]; pH 7.4,~10 °C
same,Tm,[2]; pH 7.4 + 10 μM miglustat,61.6 °C
same,Tm,[2]; pH 7.4 + 30 μM miglustat,62.9 °C
same,Tm,[2]; pH 7.4 + 100 μM miglustat,66.0 °C
same,Fibers with Autophagy Buildup,[3],40-64%*
same,Fibers with Normal or Near-normal Appearance,[3],36-60%
same,Lysosome Enlargement,[3],dramatically decreased lysosome size; also recorded: Dramatic size
same,no-observed-adverse effect-level (NOAEL),Juvenile toxicology,150 mg/kg
same,tolerability,pediatric IOPD patients,generally well-tolerated
same,AUC relative to adult percentiles,clinical,within the adult 10th-90th percentile
same,Cmax relative to adult percentiles,clinical,within the adult 10th-90th percentile
same,CK,pediatric IOPD patient; AT2221 115 mg QW,1187 U/L
same,Pro-BNP,pediatric IOPD patient; AT2221 115 mg QW,44.29 pg/mL
same,CK,pediatric IOPD patient; ATB200 20 mg/kg QW,1834 U/L
same,Glc4,pediatric IOPD patient; ATB200 20 mg/kg QW,41.53 mmol/mol CRE
same,Pro-BNP,pediatric IOPD patient; ATB200 20 mg/kg QW,36.3 pg/mL
same,Pro-BNP,pediatric IOPD patient; ATB200 20 mg/kg q2w,151.5 pg/mL
same,Glc4,"pediatric IOPD patient; ATB200 20 mg/kg, AT2221 130 mg",29.08 mmol/mol CRE
same,Pro-BNP,"pediatric IOPD patient; ATB200 20 mg/kg, AT2221 130 mg",45.52 pg/mL
same,Pro-BNP,pediatric IOPD patient; ATB200 25 mg/kg QW,33.24 pg/mL
same,LVEF,pediatric IOPD patient; ATB200 25 mg/kg QW,60.3%
same,LVMI,pediatric IOPD patient; ATB200 25 mg/kg QW,43.6 g/m^2
same,CK,"pediatric IOPD patient; ATB200 30 mg/kg, AT2221 130 mg",1146 U/L
same,Pro-BNP,"pediatric IOPD patient; ATB200 30 mg/kg, AT2221 130 mg",29.25 pg/mL
same,LVEF,"pediatric IOPD patient; ATB200 30 mg/kg, AT2221 130 mg",57%
same,LVMI,"pediatric IOPD patient; ATB200 30 mg/kg, AT2221 130 mg",39.1 g/m^2
same,CK,pediatric IOPD patient; Change AT2221 to 115 mg QW,1277 U/L
same,CK,pediatric IOPD patient; Change ATB200 to 20 mg/kg QW,1674 U/L
same,Glc4,pediatric IOPD patient; Change ATB200 to 20 mg/kg QW,50.74 mmol/mol CRE
same,LVEF,pediatric IOPD patient; Change ATB200 to 20 mg/kg QW,61.1%
same,LVMI,pediatric IOPD patient; Change ATB200 to 20 mg/kg QW,38 g/m^2
same,CK,pediatric IOPD patient; Change ATB200 to 25 mg/kg QW,1524 U/L
same,Glc4,pediatric IOPD patient; Change ATB200 to 25 mg/kg QW,34.85 mmol/mol CRE
same,Pro-BNP,pediatric IOPD patient; Change ATB200 to 25 mg/kg QW,231.9 pg/mL
same,CK,pediatric IOPD patient; Change ATB200 to 30 mg/kg QW,1661 U/L
same,Glc4,pediatric IOPD patient; Change ATB200 to 30 mg/kg QW,36.19 mmol/mol CRE
same,Pro-BNP,pediatric IOPD patient; Change ATB200 to 30 mg/kg QW,180.6 pg/mL
same,CK,pediatric IOPD patient; change to ATB200 20 mg/kg q2w,1393-1444 U/L
same,Glc4,pediatric IOPD patient; change to ATB200 20 mg/kg q2w,32.58 mmol/mol CRE
same,LVEF,pediatric IOPD patient; change to ATB200 20 mg/kg q2w,41%
same,LVMI,pediatric IOPD patient; change to ATB200 20 mg/kg q2w,42 g/m^2
same,"skin rash, dyspnea, cough, pale-like complexion","pediatric IOPD patient; human, in vivo, 30 mg/kg","had not developed any skin rash, dyspnea, cough, or pale-like complexion"
